Experimental data from the supplement of paper PMC3493320.

system: NCI-H295R; experiment: IC50 (antiproliferative, ATP content); settings: 48 h
How it was run: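 Cell viability of adrenocortical carcinoma cells was assessed as ATP by CellTiter-Glo luminescence. Cells at 1500 per well in 1536-well plates, in serum-free DMEM with ITS, received compounds by pin transfer at 8 final concentrations (0.6 nM–46 µM) after overnight culture and were then held 48 h at 37 °C, 5% CO2. IC50 was calculated by logistic fitting against vehicle and positive-control wells, compounds with no concentration response being recorded as above the top dose.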

Compound	IC50 [µM]
O=C3N1/C(=C(\CS[C@@H]1[C@@H]3NC(=O)Cc2cccs2)C[n+]4ccccc4)C([O-])=O	> 46
N[C@@H](CSCCCO)C(=O)O	> 46
CN(C)CCN(Cc1ccccc1)c1ccccn1.O=C(O)CC(O)(CC(=O)O)C(=O)O	> 46
O=C(O)c1ccc(OCCn2ccnc2)cc1	> 46
O=C(c1ccccc1)C(O)c1ccccc1 (configuration not stated)	> 46
O=Cc1ccco1	> 46
CCN(CC)CCNC(=O)c1cc(Cl)c(N)cc1OC	> 46
COc1cc2nc(N3CCN(C(=O)C4CCCO4)CC3)nc(N)c2cc1OC.Cl (configuration not stated)	> 46
CC1(C)S[C@@H]2[C@H](/N=C/N3CCCCCC3)C(=O)N2[C@H]1C(=O)O	> 46
C[C@]12CCC(=O)C[C@@H]1CC[C@@H]1[C@@H]2CC[C@]2(C)C=CC[C@@H]12	> 46
CCS(=O)(=O)C(C)(C)S(=O)(=O)CC	> 46
O=C1N(C(C(O)=O)=C(CSC4=NN=NN4C)CS2)[C@@]2([H])[C@@]([H])1NC([C@@H]([C@@](C=C5)=CC=C5O)NC(C3=C(O)C=C(C)N=C3)=O)=O	> 46
CC(C(O)c1ccc(O)cc1)N1CCC(Cc2ccccc2)CC1 (configuration not stated)	> 46
CCCCC(CC)COC(=O)c1ccccc1O (configuration not stated)	> 46
C/C(=N\Cc1ccccc1)c1ccccc1O	> 46
C[C@]41/C=C\C(=O)\C=C4\C(=C)C[C@H]2[C@@H]3CCC(=O)[C@@]3(C)CC[C@H]12	> 46
NC[C@@H]1CC[C@@H](N)[C@@H](O[C@H]2[C@H](O)[C@@H](O[C@H]3O[C@H](CO)[C@@H](O)[C@H](N)[C@H]3O)[C@H](N)C[C@@H]2N)O1	> 46
CN1C2=CC(=O)C(=NNC(N)=O)C=C2CC1S(=O)(=O)[O-].[Na+] (configuration not stated)	> 46
Cc1ncc(C[n+]2csc(CCOP(=O)(O)OP(=O)(O)O)c2C)c(N)n1.[Cl-]	> 46
CC[C@@H](CO)NC(=O)[C@@H]1C=C2c3cccc4c3c(cn4C)C[C@H]2N(C)C1	> 46
COC1[C@@H](O[C@@H]2O[C@H](C)[C@@H](O[C@H]3C[C@@](C)(O)[C@H](OC(=O)CC(C)C)[C@H](C)O3)[C@H](N(C)C)[C@H]2O)[C@@H](CC=O)C[C@@H](C)[C@@H](O)/C=C/C=C/C[C@@H](C)OC(=O)C[C@H]1OC(C)=O (some centres not stated)	> 46
CC(=O)N[C@@H](CS)C(=O)O	> 46
O=[C@@](OC)[C@H](C2=CC=CC=C2Cl)N1CC(C=CS3)=C3CC1.O=S(O)(O)=O	> 46
CN1CCC(Nc2ncc3ncnc(Nc4ccc(F)c(Cl)c4)c3n2)CC1.Cl.Cl	> 46
Nc1ccc(C(=O)Oc2ccccc2)c(O)c1	> 46

Compound	IC50 [µM]
CN[C@@H](C)[C@@H]1CC[C@@H](N)[C@@H](O[C@H]2[C@H](O)[C@@H](O[C@H]3OC[C@](C)(O)[C@H](NC)[C@H]3O)[C@H](N)C[C@@H]2N)O1.O=S(=O)(O)O	> 46
N/1C(N(\C=C\1)C)=S	> 46
O=c1[nH]c(=O)n(C2CCCO2)cc1F (configuration not stated)	> 46
CN(C)CCOC(=O)C(c1ccccc1)C1(O)CCCC1.Cl (configuration not stated)	> 46
O=P(O)(O)CP(=O)(O)O	> 46
Cc1cc(O)cc2c1O[C@](C)(CCC[C@H](C)CCC[C@H](C)CCCC(C)C)CC2	> 46
IC(I)I	> 46
CC(S)C(=O)NCC(=O)O (configuration not stated)	> 46
NCCNCCNCCN	> 46
O=C(CCCN1CCN2CCCC2C1)c1ccc(F)cc1 (configuration not stated)	> 46
CCCCCCCCCCCCCCCC[N+](C)(C)CCN(Cc1ccc(OC)cc1)c1ncccn1.[Br-]	> 46
CC[N+](CC)(CC)CCOc1cccc(OCC[N+](CC)(CC)CC)c1OCC[N+](CC)(CC)CC.[I-].[I-].[I-]	> 46
CCc1cccc(CC)c1NC(=O)CN(CC(=O)O)CC(=O)O	> 46
CC(C)(C(=O)c1cccnc1)c1cccnc1	> 46
c1ccc(C2CC2)c(OCC2=NCCN2)c1	> 46
CC(C)(Oc1ccc(C2CC2(Cl)Cl)cc1)C(=O)O (configuration not stated)	> 46
CCN(CC)C(=O)C(Cl)=C(C)OP(=O)(OC)OC	> 46
CCN(CC)C(=O)c1cccnc1	> 46
CCCCCCCCCC(CC)c1ccc(S(=O)(=O)[O-])cc1.[Na+] (configuration not stated)	> 46
O=C(O)/C=C\C(=O)O.O=C(O)/C=C\C(=O)O.c1cc(CN2CCCCC2)cc(OCCCNc2nc3ccccc3s2)c1	> 46
Cc1cc(CC(=O)[O-])n(C)c1C(=O)c1ccc(Cl)cc1.[Na+]	> 46
CC(C)OC(=O)C(C)(C)Oc1ccc(C(=O)c2ccc(Cl)cc2)cc1	> 46
CCCn1c(=O)[nH]c(=O)c2[nH]cnc21	> 46
CCN(CC)CCNC(=O)c1cc(S(C)(=O)=O)ccc1OC.Cl	> 46
NS(=O)(=O)c1ccc(Cl)c(S(N)(=O)=O)c1	> 46

Compound	IC50 [µM]
O=C1[C@@]([C@](CC5)(C)[C@]4([H])C([C@H]5O[C@@H]3[C@H](O[C@H]7[C@H](O)[C@@H](O)[C@H](O)[C@@H]([C@](O)=O)O7)[C@@H](O)[C@H](O)[C@@H]([C@@](O)=O)O3)(C)C)([H])[C@](CC4)(C)[C@@]2(C)C([C@]([C@@]6(C)CC2)([H])C[C@@](CC6)(C)[C@@](O)=O)=C1	> 46
O=C(O)c1ccccn1	> 46
FC(F)(F)COCC(F)(F)F	> 46
CC(=O)NC(=O)c1ccccc1O	> 46
O=C([C@H]3N[C@H]([C@](OCC)=O)CCC2=CC=CC=C2)N(CC(O)=O)C[C@H](SC3)[C@@]1=CC=CS1.Cl	> 46
CC(=O)Nc1ccc(OCCOCCOc2ccc(NC(C)=O)cc2)cc1	> 46
CCCNC(C)C(=O)Nc1c(C)csc1C(=O)OC.Cl (configuration not stated)	> 46
O=C(C2)N([C@]([H])1[C@@]([O-])=O)[C@]2([H])O\C1=C/CO.[Li+]	> 46
NC(=O)c1ncn([C@@H]2O[C@H](CO)[C@@H](O)[C@H]2O)c1N	> 46
Cc1ccnc2c1NC(=O)c1cccnc1N2C1CC1	> 46
Cl.OC(CCN1CCCCC1)(c1ccccc1)C1CCCCC1 (configuration not stated)	> 46
CN/C(=N\c1ccc(C2=NNC(=O)CC2C)cc1)NC#N (configuration not stated)	> 46
CC1=CCC(C(C)(C)O)CC1 (configuration not stated)	> 46
CC(C)Cc1ccc([C@@H](C)C(=O)NS(C)(=O)=O)cc1	> 46
COc1c(N2C[C@@H]3CCCN[C@@H]3C2)c(F)cc2c(=O)c(C(=O)O)cn(C3CC3)c12.Cl	> 46
CC(C)NCC(O)COc1ccccc1-n1cccc1 (configuration not stated)	> 46
O=[C@@]([O-])[C@@H](CC3=CC=CC=C3)CC(N1C[C@@]2([H])[C@@](CCCC2)([H])C1)=O.O=[C@@]([O-])[C@@H](CC6=CC=CC=C6)CC(N4C[C@@]5([H])[C@@](CCCC5)([H])C4)=O.O.O.[Ca+2]	> 46
N[C@H](CC(=O)O)C(=O)O	> 46
CCNCC(O)c1cccc(O)c1.Cl (configuration not stated)	> 46
CC(C)(CO)[C@@H](O)C(=O)NCCCC(=O)[O-].CC(C)(CO)[C@@H](O)C(=O)NCCCC(=O)[O-].[Ca+2]	> 46
O=C(SC[C@@H](C(N(C3)[C@@H](C[C@@H]3SC2=CC=CC=C2)[C@@](O)=O)=O)C)C1=CC=CC=C1	> 46
Clc1ccc2c(c1)C(N1CCNCC1)=Nc1ccccc1O2	> 46
O=C(O)Cc1csc(-c2ccc(Cl)cc2)n1	> 46
C=CCSCC1Nc2cc(Cl)c(S(N)(=O)=O)cc2S(=O)(=O)N1 (configuration not stated)	> 46
O=C1OC(c2ccc(O)c(S(=O)(=O)[O-])c2)(c2ccc(O)c(S(=O)(=O)[O-])c2)c2c(Br)c(Br)c(Br)c(Br)c21.[Na+].[Na+]	> 46

Compound	IC50 [µM]
FC(F)(F)C(F)(F)C(F)(F)C(F)(F)C(F)(F)C(F)(F)F	> 46
COc1cc(NC(C)CCCN)c2ncccc2c1.O=P(O)(O)O.O=P(O)(O)O (configuration not stated)	> 46
O=C(C2=CC=CC=C2)O[C@H]1C[C@H](CC3)N(C)[C@H]3[C@H]1[C@@](O)=O	> 46
O=P([O-])(O)C(O)(Cc1cccnc1)P(=O)([O-])O.[Na+].[Na+]	> 46
Clc1ccccc1CN1CCc2sccc2C1	> 46
CC1=CC[C@@H](CC1)[C@@](O)(C)CC\C=C(/C)C	> 46
NCC[C@H](O)C(=O)N[C@@H]1C[C@H](N)[C@@H](O[C@H]2O[C@H](CN)[C@@H](O)[C@H](O)[C@H]2N)[C@H](O[C@@H]2O[C@H](CO)[C@H](O)[C@H]2O)[C@H]1O.O=S(=O)(O)O.O=S(=O)(O)O	> 46
O=C(O)CNC(=O)c1ccccc1	> 46
CC(C)(C)NCC(O)COc1cccc2c1CCC(=O)N2.Cl (configuration not stated)	> 46
CNC1CCCN(c2c(F)cc3c(=O)c(C(=O)O)cn(C4CC4)c3c2OC)C1 (configuration not stated)	> 46
CCOc1ccc(NC(=O)CC(C)O)cc1 (configuration not stated)	> 46
COc1ccc(/C=C/C(=O)O)cc1	> 46
C[C@]12C[C@H](O)[C@H]3[C@@H](CCC4=CC(=O)CC[C@@]43C)[C@@H]1CC[C@H]2C(=O)CO	> 46
O=C1NS(=O)(=O)c2ccccc21	> 46
CC1Cc2ccccc2N1NC(=O)c1ccc(Cl)c(S(N)(=O)=O)c1 (configuration not stated)	> 46
O=C([O-])CN(CCN(CC(=O)[O-])CC(=O)[O-])CC(=O)[O-].[Fe+3].[Na+]	> 46
CCCc1ncc(C[n+]2ccccc2C)c(N)n1.Cl.[Cl-]	> 46
COc1ccc2c(c1)c1c3n2CCN(C)C3=NCC1	> 46
O=C3[C@@H]4[C@]([C@](CC6)(C)[C@H]([C@@]5=COC=C5)O3)(O4)[C@@]2(C)[C@@]6([H])[C@@]1(CO7)[C@H](CC7=O)OC(C)(C)[C@@]([H])1CC2=O	> 46
FC(F)OC(F)(F)C(F)Cl (configuration not stated)	> 46
CC(C)n1c(/C=C/[C@@H](O)C[C@@H](O)CC(=O)[O-])c(-c2ccc(F)cc2)c2ccccc21.[Na+]	> 46
COc1ccc(NS(=O)(=O)c2ccc(N)cc2)nn1	> 46
